Laboratory results: PubChem BioAssay AID1963853 (Molecular Pharmacology Branch, DTP, NCI, 2024)

Test system: 266295-075-R-J1-PDC spheroid viability
Test: Anticancer human tumor 266295-075-R-J1-PDC patient-derived head and neck squamous carcinoma cell line growth inhibition [POLQ]
Conditions: spheroids with HUVEC and MSC; for IC50: curve of first compound; for viability, T/C: stronger effect = lower value; active = viability on the fitted dose curve at most 10% of control; inactive = the rest
Method: Multicellular complex tumor spheroid response to Polymerase (POL) inhibitors (novobiocin, ART-558, RP6685) in combination with a variety of drugs and investigational agents in selected tumor cell lines
The POL inhibitors (novobiocin, ART-558, and RP6685) were evaluated both individually and in combination with standard of care and investigational anticancer small molecules within a complex spheroid model of solid tumors. . Complex spheroids include a stromal component modeled by human endothelial cells (HUVEC) and fibroblasts modeled by human mesenchymal stem cells (MSCs). The concentration ranges selected for each drug and investigational agent were based upon clinically achievable concentrations if the clinical Cmax of the agent was known.
Compounds. The drugs and investigational agents: novobiocin (NSC847541), ART-558 (NSC835418), RP-6685 (NSC848927), peposertib (NSC802822), ceralasertib (NSC780249), elimusertib (NSC800525), camonsertib (NSC841442), AZD-1390 (NSC803789), olaparib (NSC753686), talazoparib (NSC767125), rucaparib (NSC756644), sotorasib (NSC818433), MRTX-1133 (NSC836407), SN-38 (NSC673596), topotecan (NSC609699), epotoside (NSC141540), doxorubicin (NSC123127), gemcitabine (NSC613327), 5-fluorouracil (NSC19893), paclitaxel (NSC125973), vemurafenib (NSC761431), MSA-2 (NSC828583), SN-011 (NSC837082), adavosertib (NSC754352), prexasertib (NSC758257), carboplatin (NSC241240) and oxaliplatin (NSC266046), were obtained from the National Cancer Institute (NCI) Developmental Therapeutics Program Chemical Repository (21). The FDA-approved anticancer drug set is available from the Developmental Therapeutics Program at https://dtp.cancer.gov/organization/dscb/obtaining/. […] The stock solutions were prepared in dimethyl sulfoxide (DMSO, Sigma-Aldrich, St. Louis, MO, cat. D2650), except for the platinum compounds which were prepared in saline (Quality Biological, Gaithersburg, MD, cat. 114-055-101), at 800-fold the tested concentration and stored at -70 degrees C prior to their use. All drugs and investigational agents were tested over a range starting from a high concentration at or near the clinical Cmax and decreasing in half-log increments. If the clinical Cmax for an agent had not been determined, the highest concentration tested was 10 microM, except for SN-38, which was tested at a high concentration of 1 microM.
Cell Culture. All cells were maintained in an incubator at 37 degrees C and 5% CO2 with 95% humidity. The PDC lines were cultured according to standard operating procedures established by the NCI PDMR (https://pdmr.cancer.gov). Table 3 of the manuscript, lists the cell lines along with the number of the three cell types plated to form the mct-spheroids and media for tumor cell growth. After thawing, all PDC lines, except 997537-175-T-J1-PDC and 415267-285-R-J2-PDC, were cultured in Matrigel-coated flasks prepared with a working solution of 1X Ham's F-12 nutrient mix, without supplementation (Thermo Fisher Scientific, cat. 11765054), 100 U/mL penicillin-streptomycin (Thermo Fisher Scientific, cat. 15140122), and 2.5% Matrigel (Corning Inc., Corning, NY, cat. 354248) for the first three passages. The two PDC lines 997537-175-T-J1-PDC and 415267-285-R-J2-PDC were cultured on uncoated flasks. The 857933-349-R-J2-PDC line was cultured in 6C/Colon 1B media containing advanced DMEM/F-12 (Thermo Fisher Scientific, cat. 12634028), 10 mM HEPES (Thermo Fisher Scientific, cat. 15630080), 1X GlutaMAX supplement (Thermo Fisher Scientific, cat. 35050061), 0.1 mg/mL primocin (InvivoGen, San Diego, CA, cat. ant-pm-2), 10% defined fetal bovine serum, heat inactivated (HyClone Laboratories Inc., Logan, UT, cat. SH30070.03HI), 50% L-WRN conditioned media (ATCC, cat. CRL-3276), 1.25 mM N-Acetyl-L-cysteine (Sigma-Aldrich, cat. A9165), 10 mM nicotinamide (Sigma-Aldrich, cat. N0636), 1X B-27 supplement (Thermo Fisher Scientific, cat. 17504044), 1X N-2 supplement (Thermo Fisher Scientific, cat. […]
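Also: spheroids exposed to compounds for seven days before readout.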

CC1COCCN1c1cc(C2(O)CC3CCC(C2)O3)c2cnn(-c3ccn[nH]3)c2n1 (configuration not stated) + Cc1cccc(N(C)C(=O)C2C(O)CCN2c2nc(C)cc(C(F)(F)F)c2C#N)c1
872 nM: IC50 (second compound 0.1 µM)
920 nM: IC50 (second compound 0.316 µM)
inactive: viability, T/C (second compound 0.0316 µM, first compound 0.0316 µM) 84% | viability, T/C (second compound 0.0316 µM, first compound 0.1 µM) 74.1% | viability, T/C (second compound 0.0316 µM, first compound 0.316 µM) 61.3% | viability, T/C (second compound 0.0316 µM, first compound 1 µM) 47% | viability, T/C (second compound 0.0316 µM, first compound 3.16 µM) 36.8% | viability, T/C (second compound 0.0316 µM, first compound 10 µM) 25% | viability, T/C (second compound 0.1 µM, first compound 0.0316 µM) 86% | viability, T/C (second compound 0.1 µM, first compound 0.1 µM) 69.1% | viability, T/C (second compound 0.1 µM, first compound 0.316 µM) 76.2% | viability, T/C (second compound 0.1 µM, first compound 1 µM) 46% | viability, T/C (second compound 0.1 µM, first compound 3.16 µM) 37.5% | viability, T/C (second compound 0.1 µM, first compound 10 µM) 29.7% | viability, T/C (second compound 0.316 µM, first compound 0.0316 µM) 82.1% | viability, T/C (second compound 0.316 µM, first compound 0.1 µM) 74.1% | viability, T/C (second compound 0.316 µM, first compound 0.316 µM) 60.6% | viability, T/C (second compound 0.316 µM, first compound 1 µM) 49% | viability, T/C (second compound 0.316 µM, first compound 3.16 µM) 37.6% | viability, T/C (second compound 0.316 µM, first compound 10 µM) 26.3% | viability, T/C (second compound 1 µM, first compound 0.0316 µM) 94.1% | viability, T/C (second compound 1 µM, first compound 0.1 µM) 63.6% | viability, T/C (second compound 1 µM, first compound 0.316 µM) 58.4% | viability, T/C (second compound 1 µM, first compound 1 µM) 45.9% | viability, T/C (second compound 1 µM, first compound 3.16 µM) 40% | viability, T/C (second compound 1 µM, first compound 10 µM) 26.1% | viability, T/C (second compound 3.16 µM, first compound 0.0316 µM) 89.5% | viability, T/C (second compound 3.16 µM, first compound 0.1 µM) 74% | viability, T/C (second compound 3.16 µM, first compound 0.316 µM) 60.3% | viability, T/C (second compound 3.16 µM, first compound 1 µM) 51.5% | viability, T/C (second compound 3.16 µM, first compound 3.16 µM) 34.5% | viability, T/C (second compound 3.16 µM, first compound 10 µM) 31.1% | viability, T/C (second compound 10 µM, first compound 0.0316 µM) 114% | viability, T/C (second compound 10 µM, first compound 0.1 µM) 88.8% | viability, T/C (second compound 10 µM, first compound 0.316 µM) 69.1% | viability, T/C (second compound 10 µM, first compound 1 µM) 49.4% | viability, T/C (second compound 10 µM, first compound 3.16 µM) 35.2% | viability, T/C (second compound 10 µM, first compound 10 µM) 28.1%
970 nM: IC50 (second compound 10 µM)
860 nM: IC50 (second compound 3.16 µM)
839 nM: IC50 (second compound 0.0316 µM)
568 nM: IC50 (second compound 1 µM)
